According to patent US20220118121A1, “PROSTATE SPECIFIC MEMBRANE ANTIGEN (PSMA) LIGANDS WITH IMPROVED TISSUE SPECIFICITY” (Ruprecht-Karls-Universität Heidelberg, priority 2019, published 2022):
Where a SMILES comes first, the peptide text is derived from it. [ ]: non-standard residue; d: D form. The star is where a group is joined. DOTA = O=C(O)CN1CCN(CC(=O)O)CCN(CC(=O)*)CCN(CC(=O)O)CC1; EuK = O=C(O)CC[C@H](NC(=O)N[C@@H](CCCCN*)C(=O)O)C(=O)O; 2Nal = N[C@@H](Cc1ccc2ccccc2c1)C(=O)O; Trx = NC[C@H]1CC[C@H](C(=O)O)CC1

Key:
prostate cancer = conditions: cited from earlier work
PSMA+ LNCaP cells = assay: cell surface binding and internalization of radiolabeled compounds; format: cell-based; conditions: for Specific Cell Surface Binding / Specific Internalization / Cell Surface binding / Internalization: 68Ga-labeled
Method: (§1) PSMA^+ LNCaP cells (ATCC CRL-1740) were cultured in RPMI medium. Cells were grown at 37° C. in humidified air with 5% C02 and were harvested using trypsin-ethylenediaminetetraacetic acid.
(§2) The competitive cell binding assay and internalization experiments were performed according to Eder M et al. (2012), Bioconjug Chem 23(4):688.
For internalization experiments, 10^5 cells per well were seeded in poly-L-lysine coated 24-well cell culture plates 24 h before incubation. After washing, the cells were incubated with 30 nM of the ^68Ga- or ^177Lu-radiolabeled compound for 45 min at 37° C. and at 4° C., respectively. Cellular uptake was terminated by washing 3 times with 1 mL of ice-cold PBS. To remove surface-bound radioactivity, cells were incubated twice with 0.5 mL glycine-HCl in PBS (50 mM, pH=2.8) for 5 min. The cells were washed with 1 mL of ice-cold PBS and lysed using 0.3 N NaOH (0.5 mL). The surface-bound and the internalized fractions were measured in a gamma counter. The cell uptake was calculated as percent of the initially added radioactivity bound to 10^5 cells [% ID/10^5 cells].

PSMA = molecular target: T1, PSMA (Homo sapiens, UniProt Q04609); assay: competitive cell binding assay vs 68Ga-labeled PSMA-10 on LNCaP cells; conditions: LNCaP cells, 0.8 nM 68Ga-PSMA-10 radioligand; read-out: Specific Binding Affinity IC50
T1 construct: host or cells: LNCaP cells
T1 sequence (Q04609 whole entry): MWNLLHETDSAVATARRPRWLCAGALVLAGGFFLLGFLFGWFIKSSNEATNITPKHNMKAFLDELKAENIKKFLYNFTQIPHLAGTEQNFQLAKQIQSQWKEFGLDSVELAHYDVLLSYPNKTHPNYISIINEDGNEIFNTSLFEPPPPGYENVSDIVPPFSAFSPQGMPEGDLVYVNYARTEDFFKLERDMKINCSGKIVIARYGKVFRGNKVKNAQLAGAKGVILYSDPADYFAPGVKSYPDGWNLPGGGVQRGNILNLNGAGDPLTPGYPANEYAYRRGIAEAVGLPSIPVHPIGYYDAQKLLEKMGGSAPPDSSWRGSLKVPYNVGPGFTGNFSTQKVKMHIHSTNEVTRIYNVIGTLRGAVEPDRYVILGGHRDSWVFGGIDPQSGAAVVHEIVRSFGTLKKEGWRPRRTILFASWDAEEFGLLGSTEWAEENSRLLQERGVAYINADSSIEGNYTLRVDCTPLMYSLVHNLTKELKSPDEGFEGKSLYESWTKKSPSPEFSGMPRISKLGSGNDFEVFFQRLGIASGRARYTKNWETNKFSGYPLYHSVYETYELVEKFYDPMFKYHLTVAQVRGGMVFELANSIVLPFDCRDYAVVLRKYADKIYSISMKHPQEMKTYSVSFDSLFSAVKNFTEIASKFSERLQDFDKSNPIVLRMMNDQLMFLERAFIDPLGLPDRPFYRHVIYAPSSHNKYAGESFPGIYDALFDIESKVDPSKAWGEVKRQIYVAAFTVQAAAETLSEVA
Method: as §1, §2
Briefly, the cells (10^5 per well) were incubated with a 0.8 nM solution of ^68Ga-labeled radioligand [Glu-urea-Lys(Ahx)]2-HBED-CC (PSMA-10, precursor ordered from ABX, Radeberg, Germany) in the presence of 12 different concentrations of analyte (0-5000 nM, 100 μL/well). After incubation, the mixture was removed and the wells were washed 3 times with PBS using a multiscreen vacuum manifold (Millipore, Billerica, Mass.). Cell-bound radioactivity was measured using a gamma counter (Packard Cobra II, GMI, Minnesota, USA). The 50% inhibitory concentration (IC50) values were calculated by fitting the data using a nonlinear regression algorithm (GraphPad Software).

| IC50 (PSMA) | Structure (SMILES) | PSA value (prostate cancer; both patients) | response of patients (prostate cancer; two patients with extremely advanced and end-stage disease) | Specific Cell Surface Binding (PSMA+ LNCaP cells) | Specific Internalization (PSMA+ LNCaP cells) | Cell Surface binding (PSMA+ LNCaP cells; blocked) | Internalization (PSMA+ LNCaP cells; blocked) | Cell Surface binding (PSMA+ LNCaP cells; not blocked) | Internalization (PSMA+ LNCaP cells; not blocked) | Specific cell surface bound (PSMA+ LNCaP cells; 177Lu-labeled, LNCaP cells) | Specific internalized (PSMA+ LNCaP cells; 177Lu-labeled, LNCaP cells) |
| --- | --- | --- | --- | --- | --- | --- | --- | --- | --- | --- | --- |
| – | O=C([O-])CC[C@H](NC(=O)N[C@@H](CCCCNC(=O)[C@H](Cc1ccc2ccccc2c1)NC(=O)C1CCC(CNC(=O)CN2CCN(CC(=O)[O-])CCN(CC(=O)[O-])CCN(CC(=O)[O-])CC2)CC1)C(=O)[O-])C(=O)[O-].[225Ac].[H+].[H+].[H+] (stereo partly drawn) [225Ac-PSMA-617] | fell below the detectability limit | complete remission | – | – | – | – | – | – | – | – |
| 23.4 ± 9.7 nM | O=C(O)CC[C@H](NC(=O)N[C@@H](CCCCNC(=O)[C@H](Cc1ccc2ccccc2c1)NC(=O)[C@H](CCC(=O)O)NC(=O)[C@H](CCC(=O)O)NC(=O)[C@H](CCC(=O)O)NC(=O)[C@H]1CC[C@H](CNC(=O)CN2CCN(CC(=O)O)CCN(CC(=O)O)CCN(CC(=O)O)CC2)CC1)C(=O)O)C(=O)O [PS-9, DOTA-CHx-(E)3-2NaI-PSMA] ({DOTA-Trx}-EEE[2Nal]-EuK) | – | – | 0.59 ± 0.09 % ID/10^5 cells | 0.27 ± 0.07 % ID/10^5 cells | 0.060 ± 0.021 % ID/10^5 cells | 0.138 ± 0.046 % ID/10^5 cells | 0.650 ± 0.083 % ID/10^5 cells | 0.410 ± 0.090 % ID/10^5 cells | – | – |
| 21.8 ± 3.13 nM | O=C(O)CCC(NC(=O)NC(CCCCNC(=O)C(Cc1ccc2ccccc2c1)NC(=O)C1CCC(CNC(=O)CN2CCN(CC(=O)O)CCN(CC(=O)O)CCN(CC(=O)O)CC2)CC1)C(=O)O)C(=O)O (stereo not drawn) [PSMA-617, 2-[3-(1-Carboxy-5-{3-naphthalen-2-yl-2-[(4-{[2-(4,7,10-tris-carboxymethyl-1,4,7,10-tetraaza-cyclododec-1-yl)-acetylamino]-methyl}-cyclohexanecarbonyl)-amino]-propionylamino}-pentyl)-ureido]-pentanedioic acid, reference compound] | – | – | 0.72 ± 0.06 % ID/10^5 cells | 0.39 ± 0.06 % ID/10^5 cells | 0.063 ± 0.014 % ID/10^5 cells | 0.117 ± 0.032 % ID/10^5 cells | 0.792 ± 0.134 % ID/10^5 cells | 0.504 ± 0.051 % ID/10^5 cells | 4.36 ± 1.33 % ID/10^5 cells | 2.94 ± 0.35 % ID/10^5 cells |
